Data from US20100009970A1, “COMPOSITIONS AND METHODS FOR TREATMENT OF VIRAL DISEASES” (Combinatorx (Singapore) Pte. Ltd., priority 2008, published 2010).
Counter-ions that a name gives are not always drawn.

What follows are compounds tested on Huh7 cells expressing a subgenomic RNA replicon of Con1 (genotype 1b) sequence origin (assay: microbe, parasite or virus in culture). Conditions: Hepatitis C virus, Huh-7.

Row | SMILES | IC50
1 | C[C@@H]1CC[C@H]2[C@@H](C)C(=O)O[C@@H]3O[C@]4(C)CC[C@@H]1[C@]32OO4 [Artemisinin, artemisinin, reference compound] | 4.45 µM
2 | C[C@H]1[C@@H](O)O[C@@H]2O[C@@]3(C)CC[C@H]4[C@H](C)CC[C@@H]1[C@@]24OO3 [Dihydroartemisinin, dihydroartemisinin, reference compound] | 3.87 µM
3 | Nc1n[n+]([O-])c2ccccc2[n+]1[O-] [Tirapazamine, reference compound] | 1.83 µM
4 | C[C@@]1(O)[C@H](O)[C@@H](CO)O[C@H]1n1ccc(N)nc1=O [2′-C-Methylcytidine, 2′-C-methylcytidine, reference compound] | 1.63 µM
5 | CN/C(=N\c1ccc(C2=NNC(=O)CC2C)cc1)NC#N (centres unmarked) [Siguazodan, reference compound] | 2.2 µM
6 | O=c1[nH]c(=O)n([C@H]2C[C@H](O)[C@@H](CO)O2)cc1C(F)(F)F [Trifluridine, trifluridine, reference compound] | 0.38 µM
7 | O=c1oc2cc(O)ccc2s1 [Tioxolone, reference compound] | 16.2 µM
8 | CC(C)[C@H](N)C(=O)O[C@@H]1[C@@H](CO)O[C@@H](n2ccc(N)nc2=O)[C@]1(C)O [Valopicitabine (NM-283), Valopicitabine, reference compound] | 11.2 µM
9 | c1ccc(-c2ccc(C(c3ccccc3)n3ccnc3)cc2)cc1 (centres unmarked) [Bifonazole, reference compound] | 6.15 µM
10 | CCN(CC)CCO[C@H]1CC[C@@]2(C)C(=CC[C@@H]3[C@@H]2CC[C@]2(C)C(=O)CC[C@@H]32)C1 [Example U18666A, reference compound] | 0.02 µM
11 | C[C@]12CC[C@H](O)CC1=CC[C@@H]1[C@@H]2CC[C@]2(C)C(=O)CC[C@@H]12 [Dehydroepiandrosterone, reference compound] | 11.2 µM
12 | C=C1C[C@@H]2[C@H](CC[C@]3(C)C(=O)CC[C@@H]23)[C@@]2(C)C=CC(=O)C=C12 [Exemestane, reference compound] | 29 µM
13 | Nc1nc(F)nc2c1ncn2[C@@H]1O[C@H](CO)[C@@H](O)[C@@H]1O [Fludarabine, reference compound] | 4.47 µM
14 | COC[C@H]1OC(=O)c2coc3c2[C@@]1(C)C1=C(C3=O)[C@@H]2CCC(=O)[C@@]2(C)C[C@H]1OC(C)=O [Wortmannin, wortmannin, reference compound] | 3.16 µM
15 | COc1cc(NC(=O)Nc2cccc(CNC(=O)O[C@H]3CCOC3)c2)ccc1-c1cnco1 [Merimepodib (VX-497), merimepodib, reference compound] | 0.475 µM
16 | O=C(O)Cc1cc(I)c(Oc2ccc(O)c(I)c2)c(I)c1 [Tiratricol, reference compound] | 15.6 µM
17 | C[C@H]1CC(=O)C[C@@H]2CC[C@H]3[C@@H]4CC[C@H](O)[C@@]4(C)CC[C@@H]3[C@]21C [Mesterolone, mesterolone, reference compound] | 5.18 µM
18 | CN(C)CCCOc1nn(Cc2ccccc2)c2ccccc12 [Benzydamine (e.g., hydrochloride), benzydamine, reference compound] | 9 µM
19 | COc1cc(/C=C/C(=O)CC(=O)/C=C/c2ccc(O)c(OC)c2)ccc1O [Curcumin, curcumin] | 8.68 µM
20 | CN1[C@@H]2CC[C@H]1C[C@@H](OC1c3ccccc3CCc3ccccc31)C2 [Deptropine (e.g., citrate), deptropine, reference compound] | 11.1 µM
21 | CCCCCCCCCCCCCCOc1ccc(C(=O)O)o1 [TOFA, 5-(tetradecyloxy)-2-furancarboxylic acid, reference compound] | 5.53 µM
22 | CC1(C)O[C@@H]2C[C@H]3[C@@H]4CCC5=CC(=O)CC[C@]5(C)[C@@]4(F)[C@@H](O)C[C@]3(C)[C@]2(C(=O)CCl)O1 [Halcinonide, halcinonide, reference compound] | 17.4 µM
23 | Nc1cccc(OCCCCCOc2cccc(N)c2)c1 [3,3′-(Pentamethylenedioxy)dianiline, reference compound] | 1.63 µM
24 | Nc1ccc(/N=N/c2ccccc2)c(N)n1 [Phenazopyridine (e.g., hydrochloride), Phenazopyridine, reference compound] | 7.85 µM
25 | CCc1cn([C@H]2C[C@H](O)[C@@H](CO)O2)c(=O)[nH]c1=O [Edoxudine, edoxudine, reference compound] | 1.95 µM
26 | Oc1ccc(OCc2ccccc2)cc1 [Monobenzone, reference compound] | 1.59 µM
27 | Oc1ccc(O)cc1 [Hydroquinone, reference compound] | 14 µM
28 | CC[C@]1(O)C[C@H]2CN(CCc3c([nH]c4ccccc34)[C@@](C(=O)OC)(c3cc4c(cc3OC)N(C=O)[C@H]3[C@@](O)(C(=O)OC)[C@H](OC(C)=O)[C@]5(CC)C=CCN6CC[C@]43[C@@H]65)C2)C1 [Vincristine (e.g., sulfate), Vincristine, reference compound] | 0.02 µM

Row | SMILES | IC50
29 | Cc1ccc(O)c([C@H](CCN(C(C)C)C(C)C)c2ccccc2)c1 [Tolterodine (e.g., tartrate), Tolterodine, reference compound] | 27.2 µM
30 | N[C@@H](Cc1ccc(N(CCCl)CCCl)cc1)C(=O)O [Melphalan, reference compound] | 5.94 µM
31 | Oc1ccc(-c2nc(-c3ccc(F)cc3)c(-c3ccncc3)[nH]2)cc1 [SB-202190, reference compound] | 5.18 µM
32 | CCCCC1C(=O)NN(c2ccccc2)C1=O (centres unmarked) [Mofebutazone, mofebutazone, reference compound] | 14.6 µM
33 | CC[C@@]1(O)C(=O)OCc2c1cc1n(c2=O)Cc2cc3c(CN(C)C)c(O)ccc3nc2-1 [Topotecan (e.g., hydrochloride), topotecan, reference compound] | 0.095 µM
34 | CO[C@H]1/C=C/O[C@@]2(C)Oc3c(C)c(O)c4c(O)c(c5c(nc6cc(C)ccn65)c4c3C2=O)NC(=O)/C(C)=C\C=C\[C@H](C)[C@H](O)[C@@H](C)[C@@H](O)[C@@H](C)[C@H](OC(C)=O)[C@@H]1C [Rifaximin, reference compound] | 19.4 µM
35 | CN(C)CCCC1(c2ccc(F)cc2)OCc2cc(C#N)ccc21 (centres unmarked) [Citalopram (e.g., hydrobromide), Citalopram, reference compound] | 27.3 µM
36 | CCC[C@H](NC(=O)[C@@H]1[C@H]2CCC[C@H]2CN1C(=O)[C@@H](NC(=O)[C@@H](NC(=O)c1cnccn1)C1CCCCC1)C(C)(C)C)C(=O)C(=O)NC1CC1 [Telaprevir (VX-950), vx-950, reference compound] | 0.529 µM
37 | CN1CCCCC1CCN1c2ccccc2Sc2ccc([S+](C)[O-])cc21 (centres unmarked) [Mesoridazine (e.g., Besylate), mesoridazine, reference compound] | 19 µM
38 | O=C(CCCN1CCC(O)(c2cccc(C(F)(F)F)c2)CC1)c1ccc(F)cc1 [Trifluperidol, reference compound] | 7.8 µM
39 | COc1cc(C=O)ccc1O [Vanillin (e.g., acetate), Vanillin] | 3.73 µM
40 | CN(C)CCCN1c2ccccc2CCc2ccccc21 [Imipramine (e.g., hydrochloride), Imipramine, reference compound] | 16.9 µM
41 | CN1CCCC(n2nc(Cc3ccc(Cl)cc3)c3ccccc3c2=O)CC1 (centres unmarked) [Azelastine, azelastine, reference compound] | 6.22 µM
42 | CCOC(=O)c1c(CSc2ccccc2)n(C)c2cc(Br)c(O)c(CN(C)C)c12 [Arbidol, arbidol, reference compound] | 12.2 µM
43 | Cc1c(O)cccc1C(=O)N[C@@H](CSc1ccccc1)[C@H](O)CN1C[C@H]2CCCC[C@H]2C[C@H]1C(=O)NC(C)(C)C [Nelfinavir (e.g., mesylate), nelfinavir, reference compound] | 4.25 µM
44 | CC(=O)Oc1ccccc1C(=O)Nc1ncc([N+](=O)[O-])s1 [Nitazoxanide, nitazoxanide, reference compound] | 14 µM
45 | COc1cc(C(=O)NS(=O)(=O)c2ccccc2C)ccc1Cc1cn(C)c2ccc(NC(=O)OC3CCCC3)cc12 [Zafirlukast, reference compound] | 18.5 µM
46 | CC(=O)O[C@H]1C(=O)[C@@]2(C)[C@H]([C@H](OC(=O)c3ccccc3)[C@]3(O)C[C@H](OC(=O)[C@H](O)[C@@H](NC(=O)c4ccccc4)c4ccccc4)C(C)=C1C3(C)C)[C@]1(OC(C)=O)CO[C@@H]1C[C@@H]2O [Paclitaxel, reference compound] | 0.0092 µM
47 | C[C@]12CCC(=O)C=C1CC[C@@H]1[C@@H]2CC[C@@]2(C)[C@H]1CC[C@]2(C)O [Methyltestosterone, methyltestosterone, reference compound] | 19.1 µM
48 | CC(C)(C)NC(=O)NC(C(=O)N1C[C@H]2[C@@H]([C@H]1C(=O)NC(CC1CCC1)C(=O)C(N)=O)C2(C)C)C(C)(C)C (some centres unmarked) [Boceprevir (SCH 503034), Boceprevir, reference compound] | 0.259 µM
49 | CO[C@H]1/C=C/O[C@@]2(C)Oc3c(C)c(O)c4c(c3C2=O)C2=NC3(CCN(CC(C)C)CC3)NC2=C(NC(=O)/C(C)=C\C=C\[C@H](C)[C@H](O)[C@@H](C)[C@@H](O)[C@@H](C)[C@H](OC(C)=O)[C@@H]1C)C4=O [Rifabutin, reference compound] | 17.2 µM
50 | C[C@@H]1C[C@@H]([C@H](O)CC2CC(=O)NC(=O)C2)C(=O)[C@@H](C)C1 [Cycloheximide, reference compound] | 0.184 µM
51 | CC1=C(/C=C/C(C)=C/C=C/C(C)=C/C(=O)Nc2ccc(O)cc2)C(C)(C)CCC1 [Fenretinide, reference compound] | 2.26 µM
52 | CCN(CCCCOC(=O)c1ccc(OC)c(OC)c1)C(C)Cc1ccc(OC)cc1 (centres unmarked) [Mebeverine (e.g., hydrochloride), Mebeverine, reference compound] | 14.9 µM
53 | CCCCOc1ccc(CC(=O)NO)cc1 [Bufexamac, bufexamac, reference compound] | 8.29 µM
54 | CC(C)n1c(/C=C/C(O)CC(O)CC(=O)O)c(-c2ccc(F)cc2)c2ccccc21 (centres unmarked) [Fluvastatin (e.g., sodium), fluvastatin, reference compound] | 22.2 µM
55 | COC(=O)Nc1nc2cc(C(=O)c3ccc(F)cc3)ccc2[nH]1 [Flubendazole, reference compound] | 0.173 µM

Same assay, conditions: Hepatitis C virus, Huh-7, read-out: IC50 in our hands

Row | SMILES | IC50
56 | COc1cc(C(=O)NS(=O)(=O)c2ccccc2C)ccc1Cc1cn(C)c2ccc(NC(=O)OC3CCCC3)cc12 [Zafirlukast, reference compound] | 18.5 µM
